# Laboratory results: patent US20240209038A1, “TARGETING PIEZO1 TO TREAT INHERITED AND AGE-RELATED MACULAR DEGENERATIONS” (priority 2021, published 2024)
# No end group written: not given here.
# Tests used:
# primary porcine RPE = assay: Live imaging of calcium influx (Fluo-4 NW) in polarized primary RPE; type: cell-based, pig; details: for cytosolic and nuclear calcium at baseline: RPE treated with stressor causing cholesterol and ceramide accumulation; for intracellular calcium spikes in RPE cultured on silica beads: RPE cultured on silica beads to simulate drusen
# Source text: (§1) Primary adult RPE cultures. Polarized RPE monolayers from pig eyes were generated as described (Kaur et al., 2018; Tan et al., 2016; Toops et al., 2015; Toops et al., 2014). RPE on collagen-coated transwell filters form fully polarized monolayers within two weeks, develop trans-epithelial electrical resistances (TER) of ≥400 ohm·cm^2 and express RPE differentiation markers such as apical Na^+,K^+-ATPase and intracellular RPE65 (Toops et al., 2014).
# (§2) Intrinsic stressors to activate Piezo1. RPE monolayers were treated with the bisretinoid A2E to increase cholesterol and ceramide (Kaur et al., 2018; La Cunza et al., 2020; Tan et al., 2016; Toops et al., 2015), which act as intrinsic stressors that activate Piezo1.
# Extrinsic stressors to activate Piezo1. To simulate drusen-mediated mechanical stress, cells were cultured on collagen-coated filters layered with 500 nm diameter monodisperse silica microspheres (Cospheric SiO2MS-2.0 0.507 μm) at a density of 40 beads/cm^2 in a collagen (10 μg/cm^2) matrix.
# Drugs that modulate Piezo1 activity (Xiao, 2020). Yoda1 is a small molecule gating modifier that specifically potentiates Piezo1 mechanosensitivity and slows the inactivation kinetics with EC50 of ˜10-20 μM. It interacts with the […] domains of Piezo1 and thereby increases channel opening time. […] We treated primary RPE cultures for 6 hours with 10 μM Yoda1 (Sigma SML1558) for immunostaining/immunoblotting and biochemical experiments, or with 25 μM for 1-5 minutes for live imaging experiments. RPE cultures were treated with 500 nM GsMTx-4 (Tocris 4912100U) for 6 h.
# High-speed live-cell imaging. The Nikon CSU-X1 dual camera platform spinning disk confocal microscopy system will be used for live imaging of primary RPE cultures and mouse RPE flatmounts. Images will be analyzed using Imaris (Bitplane) (Kaur et al., 2018; Tan et al., 2016; Toops et al., 2015). If necessary, Delta Vision OMX-SR (GE Healthcare Life Sciences) with 3D structured illumination microscopy (3D-SIM) and ring-TIRF capabilities at UCSF's Nikon Imaging Center will be used for super-resolution imaging.
# Live imaging of calcium influx. For live imaging of calcium influx, primary porcine RPE grown on Transwell filters±A2E or grown on silica beads, and mouse RPE flatmounts were loaded with Fluo-4 NW (Invitrogen, F36206) for 30 min according to manufacturer's protocol. Excised Transwell filters or mouse RPE flatmounts were mounted onto a Warner chamber in the presence of Fluorobrite DMEM (Gibco, A1896701) supplemented with 1% FBS (ATCC, 30-2020), 1% NEAA (Corning, 25025CI), and 4 mM L-glutamine (Gibco, 25030081) and imaged using Nikon spinning disk confocal microscope with 60× oil immersion objective (1.49 NA). To increase or inhibit Piezo1 channel activity, Yoda1 (25 μM) or GsMTx-4 (5 μM) was added prior to live imaging. Apart from these drugs, preincubation with BAPTA-AM (Thermofisher) was used to determine the Ca^2+-dependence of nuclear and cytosolic signals.
# RPE [1] = details: cited from earlier work; for cholesterol and ceramide accumulation in RPE: Tan et al., 2016
# RPE [2] = assay: Complement-mediated mitochondrial fragmentation in RPE (mito-RFP live imaging, A2E + 10% NHS); type: cell-based; details: A2E-treated RPE exposed to 10% NHS; Simvastatin 5 μM 16 h, T0901317 1 μM 16 h, desipramine 10 μM 3 h
# Experimental: (§3) FIGS. 7A-7B. 7A, 3D reconstruction from live imaging of mitochondrial volumes in mock transfected RPE transduced with mito-RFP, treated with A2E and exposed to 10% NHS to induce complement attack. RPE were treated with Simvastatin (5 μM, 16 h), T0901317 (1 μM, 16 h) or desipramine (10 μM, 3 h) prior to imaging. […] 7B, Quantification of fragmented mitochondria per cell from images in A. Mean±SEM, ***, p<0.0001, t-test. C, H3K9me3 (red) immunostaining in retinal cryosections from Abca4−/− mice treated with vehicle or […] desipramine i.p.
# RPE [3] = assay: Cholesterol and ceramide accumulation in the RPE; type: cell-based; details: FIGS. 3A and 3B
# Experimental: as §2
# [4] = test system: Abca4−/− mice RPE flatmounts; assay: Live imaging of actin (SiR-actin) in mouse RPE flatmounts; type: cell-based; details: freshly isolated Abca4−/− mice RPE flatmounts compared to age-matched wild types
# Source text: FIGS. 5A-5C. Validation of the Abca4−/− mouse model to study the role of Piezo1 in RPE dysfunction. 5A, H3K9me3 (red) immunostaining in 8-month-old wild type and Abca4−/− mouse RPE flatmounts. 5B, reconstruction of mitochondrial volumes from Tom20 staining in wild type and Abca4−/− mouse RPE flatmounts. Warmer colors indicate healthy mitochondria and cooler colors indicate fragmented mitochondria. 5C, Live imaging of mouse RPE flatmounts with FluoNW (green) and SiR-actin (red).
# (§4) Live imaging of mouse RPE flatmounts. Tissue from freshly harvested eyes will be mounted onto a Warner chamber in the presence of Fluorobrite DMEM (Gibco, A1896701) supplemented with 1% FBS (ATCC, 30-2020), 1% NEAA (Corning, 25025CI), and 4 mM L-glutamine (Gibco, 25030081) and imaged immediately using a 60× oil immersion objective (1.49 NA).
# Live imaging of actin dynamics was performed using SiR-actin (1 μM, 30 min) and FLIPPER-TR plasma membrane probe in RPE with A2E or grown on silica beads±Yoda1±GsMTx-4
# Piezo2 = details: specificity for Piezo1; cited from earlier work
# primary polarized RPE [5] = assay: Mitochondrial volumes/fragmentation from Tom20 staining in primary RPE cultures; type: cell-based, pig
# Experimental: (§5) FIGS. 4A-4E. 4A, 3D reconstructions; 4B, quantitation of mitochondrial volumes from Tom20 staining in primary RPE cultures treated or not with Yoda1 and GsMTx-4. Warmer colors indicate healthy mitochondria and cooler colors indicate fragmented mitochondria. Mean±SEM; *** p<0.0001, unpaired t-test. 4C, H3K9me3 (red; merge with DAPI appears pink) immunostaining in primary RPE cultured on collagen or collagen with silica beads±GSMTx-4 (500 nM, 3 h). 4D, Actin labeling in live primary RPE cultures. Arrow heads: actin “knots” that indicate areas of actin polymerization prior to actomyosin contraction and cell extrusion. 4E, quantitation of actin staining intensity in primary RPE cultured on collagen or collagen with beads and treated with Yoda1 and/or GsMTx-4. Mean±SEM, *, p<0.05; *** p<0.001, unpaired t-test.
# as §1
# (§6) Drugs that modulate Piezo1 activity (Xiao, 2020). […]
# primary polarized RPE [6] = assay: H3K9me3 immunostaining in primary polarized RPE; type: cell-based, pig; details: prolonged piezo1 activation
# Experimental: as §5, §1, §6
# Piezo1 [7] = details: Xiao, 2020; read-out: EC50, potentiates Piezo1 mechanosensitivity and slows the inactivation kinetics; cited from earlier work
# [8] = test system: Abca4−/− mice RPE flatmounts; assay: Live imaging of calcium influx (Fluo-4 NW) in mouse RPE flatmounts; type: cell-based; details: preliminary live imaging
# Source text: (§7) Mice. There are no mouse models that adequately reproduce AMD phenotypes. We therefore used models that best recapitulate the phenotype of interest. We used pigmented wild-type (129S1/SvlmJ) and Abca4^−/− mice (Jackson Labs) because we and others have reported that Abca4^−/− mice RPE show an age-dependent accumulation of cholesterol and ceramide (Kaur et al., 2018; Lenis et al., 2017; Tan et al., 2016; Toops et al., 2015), which are known to prolong Piezo1 activation (Ridone et al., 2020, Shi et al., 2020).
# as §4
# Live imaging of calcium influx. For live imaging of calcium influx, primary porcine RPE grown on Transwell filters±A2E or grown on silica beads, and mouse RPE flatmounts were loaded with Fluo-4 NW (Invitrogen, F36206) for 30 min according to manufacturer's protocol. […]
# [9] = test system: polarized primary RPE cultures; assay: Live imaging of actin dynamics (SiR-actin) in polarized primary RPE cultures; type: cell-based, pig
# Experimental: as §5
# Primary adult RPE cultures. Polarized RPE monolayers from pig eyes were generated as described (Kaur et al., 2018; Tan et al., 2016; Toops et al., 2015; Toops et al., 2014). RPE on collagen-coated transwell filters form fully polarized monolayers within two weeks, develop trans-epithelial electrical resistances (TER) of ≥400 ohm·cm^2 and express RPE differentiation markers such as apical Na^+,K^+-ATPase and intracellular RPE65 (Toops et al., 2014). […]
# Abca4−/− mice = assay: Nuclear H3K9me3 in RPE of Abca4−/− mice after drug administration; type: in vivo, mouse; details: 10 mg/kg i.p., three times/week for four weeks, compared to vehicle-treated mice
# Experimental: as §3, §7
# Antibodies. All antibodies used were validated for specificity using the relevant IgG controls, cell lysates lacking the antigen, or by blocking peptides. […]
# Piezo1 [10] = details: Suchyna, et al. Nature 430:235-240, 2004; cited from earlier work
# Piezo1 [11] = molecular target: Piezo1 (Mus musculus, UniProt E2JF22); details: whole cell recordings as described in Bae et al., Biochemistry 50:6295-300, 2011; range printed with mixed units (nM to μM); read-out: Kd, reversible block of Piezo1 activation; cited from earlier work
# Sequence of Piezo1 (Mus musculus, UniProt E2JF22) (E2JF22 whole entry): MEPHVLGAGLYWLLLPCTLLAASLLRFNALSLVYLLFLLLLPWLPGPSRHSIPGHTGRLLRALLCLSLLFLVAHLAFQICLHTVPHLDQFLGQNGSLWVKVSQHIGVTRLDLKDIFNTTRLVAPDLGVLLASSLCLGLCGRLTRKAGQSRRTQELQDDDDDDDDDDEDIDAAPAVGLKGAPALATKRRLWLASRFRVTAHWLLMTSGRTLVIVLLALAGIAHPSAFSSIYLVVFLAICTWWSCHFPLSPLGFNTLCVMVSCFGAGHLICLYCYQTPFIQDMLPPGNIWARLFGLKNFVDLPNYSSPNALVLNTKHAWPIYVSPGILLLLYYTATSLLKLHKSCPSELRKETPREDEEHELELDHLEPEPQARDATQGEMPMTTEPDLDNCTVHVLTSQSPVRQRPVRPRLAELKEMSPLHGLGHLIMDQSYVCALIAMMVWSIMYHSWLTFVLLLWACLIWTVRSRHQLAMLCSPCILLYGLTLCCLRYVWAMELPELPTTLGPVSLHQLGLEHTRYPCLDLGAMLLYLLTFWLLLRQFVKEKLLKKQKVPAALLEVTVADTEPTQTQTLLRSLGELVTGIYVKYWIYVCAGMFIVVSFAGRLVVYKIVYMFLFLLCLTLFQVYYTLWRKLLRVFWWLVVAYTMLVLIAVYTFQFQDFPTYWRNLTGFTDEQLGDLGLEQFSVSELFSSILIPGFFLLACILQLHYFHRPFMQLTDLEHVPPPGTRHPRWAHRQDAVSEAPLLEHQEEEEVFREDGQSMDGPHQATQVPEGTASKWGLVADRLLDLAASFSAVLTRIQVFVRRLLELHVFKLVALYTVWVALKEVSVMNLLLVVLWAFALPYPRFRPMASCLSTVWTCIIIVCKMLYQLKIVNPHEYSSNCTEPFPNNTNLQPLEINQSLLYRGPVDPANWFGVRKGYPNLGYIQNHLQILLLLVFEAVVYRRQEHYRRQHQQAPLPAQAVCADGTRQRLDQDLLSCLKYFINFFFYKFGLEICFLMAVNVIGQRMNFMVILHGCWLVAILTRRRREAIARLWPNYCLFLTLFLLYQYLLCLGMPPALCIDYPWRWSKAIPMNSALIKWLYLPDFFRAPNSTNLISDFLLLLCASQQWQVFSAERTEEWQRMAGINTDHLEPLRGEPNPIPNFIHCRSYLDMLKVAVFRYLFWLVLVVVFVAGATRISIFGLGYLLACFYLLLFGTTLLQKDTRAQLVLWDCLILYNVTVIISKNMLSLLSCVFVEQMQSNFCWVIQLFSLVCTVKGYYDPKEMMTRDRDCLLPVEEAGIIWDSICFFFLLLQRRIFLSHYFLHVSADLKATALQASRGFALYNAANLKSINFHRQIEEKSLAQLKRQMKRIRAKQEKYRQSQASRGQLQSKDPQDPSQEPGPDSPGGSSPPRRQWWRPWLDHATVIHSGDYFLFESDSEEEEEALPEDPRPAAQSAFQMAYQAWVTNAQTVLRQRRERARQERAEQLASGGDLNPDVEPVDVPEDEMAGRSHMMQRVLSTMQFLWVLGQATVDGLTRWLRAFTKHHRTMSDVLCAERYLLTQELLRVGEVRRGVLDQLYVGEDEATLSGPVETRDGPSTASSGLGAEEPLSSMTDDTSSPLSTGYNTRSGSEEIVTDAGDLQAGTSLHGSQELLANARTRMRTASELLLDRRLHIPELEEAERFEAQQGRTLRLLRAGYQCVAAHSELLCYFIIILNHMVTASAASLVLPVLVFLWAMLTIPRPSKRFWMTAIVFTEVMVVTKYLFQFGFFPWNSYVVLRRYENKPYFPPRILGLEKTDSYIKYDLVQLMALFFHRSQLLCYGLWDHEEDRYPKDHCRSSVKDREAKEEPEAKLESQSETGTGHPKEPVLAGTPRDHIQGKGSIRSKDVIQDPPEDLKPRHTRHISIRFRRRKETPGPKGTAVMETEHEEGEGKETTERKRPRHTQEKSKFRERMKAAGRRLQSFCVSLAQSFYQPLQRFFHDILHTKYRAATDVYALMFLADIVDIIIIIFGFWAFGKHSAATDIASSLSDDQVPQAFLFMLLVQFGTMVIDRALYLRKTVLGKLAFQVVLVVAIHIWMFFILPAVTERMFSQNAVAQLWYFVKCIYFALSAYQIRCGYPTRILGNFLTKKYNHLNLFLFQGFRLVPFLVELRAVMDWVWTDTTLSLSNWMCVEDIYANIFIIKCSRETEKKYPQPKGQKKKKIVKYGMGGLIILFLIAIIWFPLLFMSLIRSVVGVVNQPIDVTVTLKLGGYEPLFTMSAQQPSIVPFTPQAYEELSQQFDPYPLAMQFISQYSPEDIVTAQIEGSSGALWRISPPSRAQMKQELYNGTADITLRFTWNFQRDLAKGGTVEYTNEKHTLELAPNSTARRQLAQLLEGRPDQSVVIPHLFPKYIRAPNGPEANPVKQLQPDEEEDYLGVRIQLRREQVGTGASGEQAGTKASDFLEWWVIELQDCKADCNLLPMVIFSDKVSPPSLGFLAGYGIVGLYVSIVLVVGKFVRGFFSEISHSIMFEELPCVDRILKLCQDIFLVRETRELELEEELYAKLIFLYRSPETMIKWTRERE
# Piezo1 [12] = molecular target: T1, Piezo1 (Homo sapiens, UniProt Q92508); assay: Piezo1 currents in whole cell-clamped primary RPE (patch-clamp/high-speed pressure clamp); type: cell-based; details: depletion of membrane cholesterol
# T1 construct: Dissociated RPE cells from human donors were whole cell-clamped; endogenous in cells; host or cells: dissociated RPE cells from human donors
# T1 sequence (Q92508 whole entry): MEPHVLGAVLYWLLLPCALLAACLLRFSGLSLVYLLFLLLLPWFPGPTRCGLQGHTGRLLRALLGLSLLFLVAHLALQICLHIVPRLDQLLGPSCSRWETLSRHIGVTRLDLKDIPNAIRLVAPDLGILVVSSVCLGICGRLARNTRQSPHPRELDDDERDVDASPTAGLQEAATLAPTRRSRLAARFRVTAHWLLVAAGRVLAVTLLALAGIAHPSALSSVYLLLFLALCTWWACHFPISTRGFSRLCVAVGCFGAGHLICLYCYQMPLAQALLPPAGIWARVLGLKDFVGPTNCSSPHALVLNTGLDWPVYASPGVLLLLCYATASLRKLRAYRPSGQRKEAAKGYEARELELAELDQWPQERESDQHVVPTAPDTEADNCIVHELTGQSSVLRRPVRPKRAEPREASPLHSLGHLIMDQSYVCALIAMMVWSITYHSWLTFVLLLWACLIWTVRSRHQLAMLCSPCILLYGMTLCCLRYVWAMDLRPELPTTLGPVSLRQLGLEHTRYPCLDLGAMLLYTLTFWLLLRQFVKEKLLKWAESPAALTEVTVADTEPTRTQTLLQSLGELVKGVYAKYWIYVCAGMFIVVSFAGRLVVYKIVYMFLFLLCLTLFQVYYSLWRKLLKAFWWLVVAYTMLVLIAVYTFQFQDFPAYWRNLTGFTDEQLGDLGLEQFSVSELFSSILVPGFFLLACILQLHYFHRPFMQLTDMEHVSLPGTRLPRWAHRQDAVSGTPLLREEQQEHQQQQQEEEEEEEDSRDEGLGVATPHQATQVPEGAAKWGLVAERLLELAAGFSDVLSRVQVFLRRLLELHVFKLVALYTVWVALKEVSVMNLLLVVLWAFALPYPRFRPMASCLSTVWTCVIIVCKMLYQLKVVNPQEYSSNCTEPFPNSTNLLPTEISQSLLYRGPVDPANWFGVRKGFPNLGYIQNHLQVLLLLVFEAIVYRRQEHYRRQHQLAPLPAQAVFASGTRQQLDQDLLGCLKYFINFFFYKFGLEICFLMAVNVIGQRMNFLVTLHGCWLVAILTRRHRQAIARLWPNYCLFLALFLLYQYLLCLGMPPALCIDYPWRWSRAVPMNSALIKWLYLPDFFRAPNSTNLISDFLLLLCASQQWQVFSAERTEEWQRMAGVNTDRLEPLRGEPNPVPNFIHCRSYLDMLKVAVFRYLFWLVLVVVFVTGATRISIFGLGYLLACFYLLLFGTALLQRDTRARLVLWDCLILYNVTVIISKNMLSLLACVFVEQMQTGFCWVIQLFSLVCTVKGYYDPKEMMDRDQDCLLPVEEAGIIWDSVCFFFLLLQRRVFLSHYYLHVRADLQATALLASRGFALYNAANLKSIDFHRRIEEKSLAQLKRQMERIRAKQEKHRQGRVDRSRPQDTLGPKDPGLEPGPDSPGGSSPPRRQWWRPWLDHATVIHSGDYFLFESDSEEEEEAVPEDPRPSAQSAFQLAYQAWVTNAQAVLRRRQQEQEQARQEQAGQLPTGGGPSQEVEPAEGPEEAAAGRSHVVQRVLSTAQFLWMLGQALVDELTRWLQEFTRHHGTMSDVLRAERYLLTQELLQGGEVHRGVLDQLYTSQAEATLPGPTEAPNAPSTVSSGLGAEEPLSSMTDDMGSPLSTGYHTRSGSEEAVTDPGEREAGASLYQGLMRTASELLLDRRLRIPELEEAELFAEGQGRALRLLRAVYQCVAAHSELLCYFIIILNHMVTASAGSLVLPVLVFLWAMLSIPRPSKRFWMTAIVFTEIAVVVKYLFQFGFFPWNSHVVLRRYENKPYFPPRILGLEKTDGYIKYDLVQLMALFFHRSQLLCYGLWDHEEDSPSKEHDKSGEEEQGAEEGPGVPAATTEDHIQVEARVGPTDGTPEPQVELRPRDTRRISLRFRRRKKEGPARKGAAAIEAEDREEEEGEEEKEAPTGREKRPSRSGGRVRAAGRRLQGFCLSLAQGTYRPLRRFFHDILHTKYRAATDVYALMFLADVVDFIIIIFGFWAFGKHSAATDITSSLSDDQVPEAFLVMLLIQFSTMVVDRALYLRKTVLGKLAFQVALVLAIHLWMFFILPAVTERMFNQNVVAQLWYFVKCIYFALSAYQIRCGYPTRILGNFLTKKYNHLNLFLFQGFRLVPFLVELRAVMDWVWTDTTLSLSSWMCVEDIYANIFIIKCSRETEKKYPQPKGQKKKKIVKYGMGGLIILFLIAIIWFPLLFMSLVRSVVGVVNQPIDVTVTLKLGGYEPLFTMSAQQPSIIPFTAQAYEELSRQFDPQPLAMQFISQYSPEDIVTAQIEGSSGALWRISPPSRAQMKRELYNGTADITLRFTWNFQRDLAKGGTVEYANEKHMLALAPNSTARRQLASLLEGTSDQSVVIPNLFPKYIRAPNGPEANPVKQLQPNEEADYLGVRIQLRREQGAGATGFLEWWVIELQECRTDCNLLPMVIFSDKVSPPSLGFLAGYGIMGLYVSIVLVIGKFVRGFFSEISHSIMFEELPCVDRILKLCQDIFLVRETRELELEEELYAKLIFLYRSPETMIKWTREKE
# Source text: FIGS. 3A-3D. Cholesterol and ceramide modulate Piezo1 activation in the RPE. 3A, Stills (at 130 sec and 300 sec) from Fluo4NW live imaging (green); 3B, quantification. In the results provided in FIGS. 3A and 3B, U18 increased cholesterol and ceramide. Mean±SEM, ** p<0.005, unpaired t-test. 3C, Representative traces of whole-cell currents in primary RPE recorded in a typical patch-clamp/HSPC experiment (40 mV holding potential, 25 mm Hg pressure step for 500 mSec). Black trace—control cells; red trace—RPE treated with b-cyclodextrin to deplete membrane cholesterol. 3D, Quantification of results in C. Mean±SEM, n=4 cells.
# Electrophysiology. Dissociated RPE cells from human donors were whole cell-clamped. Steps of positive pressure (2-30 mm Hg) were applied through the patch pipette using high-speed pressure clamp (ALA Instruments) or the cells stimulated with msec indentations of a blunt pipette tip (Physik Instrumente) to evoke the mechanosensitive current. The Piezo1-dependent current was confirmed using GsMTx-4 (Lapajne et al., 2020).
# [13] = in vitro and in vivo (Kaur et al., 2018; Tan et al., 2016; Toops et al., 2015)
compound,measurement,setting,value
CC1=C(/C=C/C(C)=C/C=C/C(C)=C/c2cc(/C=C/C=C(C)/C=C/C3=C(C)CCCC3(C)C)cc[n+]2CCO)C(C)(C)CCC1 [A2E],cytosolic and nuclear calcium at baseline,primary porcine RPE,prolonged cytosolic and nuclear calcium even at baseline
same,cholesterol and ceramide accumulation in RPE,RPE [1],cause cholesterol and ceramide accumulation
O=S(=O)(c1ccccc1)N(CC(F)(F)F)c1ccc(C(O)(C(F)(F)F)C(F)(F)F)cc1 [T0901317],lipofuscin-induced cholesterol accumulation in the RPE,RPE [1]; [13],decreased
same,complement-mediated mitochondrial fragmentation in RPE,RPE [2],protect
CCN(CC)CCO[C@H]1CC[C@@]2(C)C(=CC[C@@H]3[C@@H]2CC[C@]2(C)C(=O)CC[C@@H]32)C1 [U18666A],cholesterol and ceramide in RPE,RPE [3],increased
same,cytosolic and nuclear calcium at baseline,primary porcine RPE,prolonged cytosolic and nuclear calcium even at baseline
same,calcium levels after Yoda1 treatment,"primary porcine RPE; RPE+U18 versus control RPE, where they returned to baseline within minutes",remained high in all cellular compartments
same,cholesterol and ceramide accumulation in RPE,RPE [1],cause cholesterol and ceramide accumulation
Clc1cccc(Cl)c1CSc1nnc(-c2cnccn2)s1 [Yoda1],actin intensity in RPE flatmounts,[4],increased actin intensity
same,activation of Piezo2,Piezo2,does not activate Piezo2
same,mitochondrial fragmentation,primary polarized RPE [5],mitochondrial fragmentation
same,nuclear H3K9me3,primary polarized RPE [6],loss of nuclear H3K9me3
same,EC50,Piezo1 [7],10 to 20 µM
same,calcium influx in freshly isolated RPE flatmounts,[8],increased calcium influx
same,calcium influx in the RPE,"primary porcine RPE; 25 μM, 1 min, RPE on collagen, live imaging",induces a rapid nuclear calcium influx within seconds
same,intracellular calcium spikes in RPE cultured on silica beads,primary porcine RPE,further potentiated
same,actin accumulation at cell-cell junctions,[9],caused rapid actin accumulation at cell-cell junctions
CNCCCN1c2ccccc2CCc2ccccc21 [desipramine],nuclear H3K9me3 in the RPE,Abca4−/− mice,restored nuclear H3K9me3
same,lipofuscin-induced ceramide accumulation in the RPE,RPE [1]; [13],decreased
same,complement-mediated mitochondrial fragmentation in RPE,RPE [2],protect
"GsMTx4-L: L enantiomeric form of GsMTx4 (GCLEFWWKCNPNDDKCCRPKLKCSKLFKLCNFSF; ends and bridges not checked; cysteine pairing not given here; UniProt Q7YT39 47-80, looked up)","effectiveness at blocking Piezo1 activation, L- versus D-enantiomer",Piezo1 [10],equally effective
GsMTx-4,mitochondrial fragmentation,primary polarized RPE [5],protected RPE mitochondria
same,Kd,Piezo1 [11],155 to 2000 nM
same,intracellular calcium spikes in RPE cultured on silica beads,primary porcine RPE,decreased
same,actin accumulation at cell-cell junctions,[9],prevented
cyclodextrin,peak current amplitudes of Piezo1 currents,Piezo1 [12],drastically decreased
